A value given as a limit tells only on which side of the number the result lay.

Usually EC50 stands for the concentration needed to bring the measured effect to its halfway point.

human APJ receptor, sequence (P35414 whole entry): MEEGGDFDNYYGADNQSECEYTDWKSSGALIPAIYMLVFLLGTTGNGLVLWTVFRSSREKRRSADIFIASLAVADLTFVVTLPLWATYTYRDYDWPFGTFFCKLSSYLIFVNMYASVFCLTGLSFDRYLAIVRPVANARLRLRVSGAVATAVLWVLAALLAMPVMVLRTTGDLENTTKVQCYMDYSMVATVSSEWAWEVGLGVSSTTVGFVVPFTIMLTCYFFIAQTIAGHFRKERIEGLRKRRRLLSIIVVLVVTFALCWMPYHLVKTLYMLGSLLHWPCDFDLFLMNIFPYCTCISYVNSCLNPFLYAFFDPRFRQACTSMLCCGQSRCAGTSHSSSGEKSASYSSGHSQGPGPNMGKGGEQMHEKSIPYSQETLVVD

The target of the first assay is human APJ receptor (Homo sapiens (Human), UniProt P35414). Kind of assay: biochemical. Format: biochemical. The settings on record: [35S]GTPγS binding, membranes from CHO cells stably expressing human APJ receptor; read-out: Activity hAPJ SPA EC50 IP. The essentials:
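[35S]GTPγS binding to membranes from CHO cells stably expressing human APJ, captured on WGA PS beads (5 μg/well). Buffer: 20 mM HEPES pH 7.5, 5 mM MgCl2, 100 mM NaCl, 0.1% BSA, with 3 μM GDP and 0.1 nM [35S]GTPγS final; compounds tested as 22-point 2-fold dilutions.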
Background: GTPγS is a poorly hydrolysed GTP analogue; its binding reports G protein activation.
For `COCc1nnc(NS(=O)(=O)[C@@H](C)[C@H](C)c2cnc(C)cn2)n1-c1c(OC)ncnc1OC` [Example 9.0, (2S,3R)-N-(4-(4,6-dimethoxy-5-pyrimidinyl)-5-(methoxymethyl)-4H-1,2,4-triazol-3-yl)-3-(5-methyl-2-pyrazinyl)-2-butanesulfonamide], the EC50 was 630 nM.
For the compound “(1R,2S)-1-(5-chloro-2-pyrimidinyl)-N-(5-((1R)-1-cyclopropylethyl)-4-(4,6-dimethoxy-5-pyrimidinyl)-4H-1,2,4-triazol-3-yl)-1-methoxy-2-propanesulfonamide and (1R,2S)-1-(5-chloro-2-pyrimidinyl)-N-(5-((1S)-1-cyclopropylethyl)-4-(4,6-dimethoxy-5-pyrimidinyl)-4H-1,2,4-triazol-3-yl)-1-methoxy-2-propanesulfonamide [Example 167.0]”, the EC50 was 110 nM.
Turning to `COCc1nnc(NS(=O)(=O)[C@@H](C)[C@H](OC)c2ncc(Cl)cn2)n1C1(C)CC1` [Example 59.0, (1R,2S)-1-(5-chloropyrimidin-2-yl)-1-methoxy-N-(5-(methoxymethyl)-4-(1-methylcyclopropyl)-4H-1,2,4-triazol-3-yl)propane-2-sulfonamide], the EC50 was 33 nM.
Take `COc1cccc(OC)c1-n1c(Cc2ccncc2)nnc1NS(=O)(=O)[C@@H](C)[C@H](C)c1ncc(Cl)cn1` [Example 141.0, (2S,3R)-3-(5-Chloro-2-pyrimidinyl)-N-(4-(2,6-dimethoxyphenyl)-5-(4-pyridinylmethyl)-4H-1,2,4-triazol-3-yl)-2-butanesulfonamide]: the EC50 amounted to 100 nM.
As to `COc1cccc(OC)c1-n1c(Cc2ccc(C)cn2)nnc1NS(=O)(=O)[C@@H](C)[C@H](C)c1ncc(C)cn1` [Example 20.0, (2S,3R)-N-(4-(2,6-dimethoxyphenyl)-5-((5-methyl-2-pyridinyl)methyl)-4H-1,2,4-triazol-3-yl)-3-(5-methyl-2-pyrimidinyl)-2-butanesulfonamide], the EC50 is greater than 4200 nM.
For the compound `COc1ncnc(OC)c1-n1c(COC(F)F)nnc1NS(=O)(=O)[C@@H](C)[C@H](OC)c1ncc(Cl)cn1` [Example 128.0, (1R,2S)-1-(5-chloropyrimidin-2-yl)-N-(5-((difluoromethoxy)methyl)-4-(4,6-dimethoxypyrimidin-5-yl)-4H-1,2,4-triazol-3-yl)-1-methoxypropane-2-sulfonamide], the EC50 is 60 nM.
The same measure, in the same setting: the value for `COc1ncnc(OC)c1-n1c(CC2CC2)nnc1NS(=O)(=O)[C@@H](C)[C@H](OC)c1ncc(Cl)cn1` [Example 27.0, (1R,2S)-1-(5-chloro-2-pyrimidinyl)-N-(5-(cyclopropylmethyl)-4-(4,6-dimethoxy-5-pyrimidinyl)-4H-1,2,4-triazol-3-yl)-1-methoxy-2-propanesulfonamide] was 7.6 nM.
Regarding `COCc1nnc(NS(=O)(=O)[C@@H](C)[C@H](OC)c2ncc(Cl)cn2)n1-c1c(Cl)cccc1Cl` [Example 157.0], the EC50 was greater than 12500 nM.
`CC[C@@H](OC)c1nnc(NS(=O)(=O)[C@@H](C)[C@H](C)c2ncc(Cl)cn2)n1-c1c(OC)ncnc1OC` (single isomer, unassigned) [Example 6.0, (2S,3R)-3-(5-chloro-2-pyrimidinyl)-N-(4-(4,6-dimethoxy-5-pyrimidinyl)-5-((1R)-1-methoxypropyl)-4H-1,2,4-triazol-3-yl)-2-butanesulfonamide or (2S,3R)-3-(5-chloro-2-pyrimidinyl)-N-(4-(4,6-dimethoxy-5-pyrimidinyl)-5-((1S)-1-methoxypropyl)-4H-1,2,4-triazol-3-yl)-2-butanesulfonamide]: the EC50 worked out at 740 nM.

The assay is the same for the next values; noted with them: read-out: Activity hAPJ SPA EC50 IP.
`COCc1nnc(NS(=O)(=O)[C@@H](C)[C@H](C)c2ccc(Cl)cn2)n1-c1c(OC)cccc1OC` [Example 75.0, (2S,3R)-3-(5-chloropyridin-2-yl)-N-(4-(2,6-dimethoxyphenyl)-5-(methoxymethyl)-4H-1,2,4-triazol-3-yl)butane-2-sulfonamide]: the EC50 was determined as 3.1 nM.
As for `COCCOCc1nnc(NS(=O)(=O)[C@@H](C)[C@H](C)c2ncc(Cl)cn2)n1-c1c(OC)cccc1OC` [Example 151.0], the EC50 was determined as 24 nM.

The values above are taken from patent publication US11191762B2, “Alkyl substituted triazole compounds as agonists of the APJ Receptor” (priority 2016, dated 2021).
